Columns and labels:
Format in all cases: cell-based, human
[1] = tested on: MUC1-ST educated monocytes and macrophages; assay: Secretion of PAI-1 and M-CSF from MUC1-ST educated monocytes and macrophages with PD98059 or verapamil
Description: ELISAs for IL-6, IL-12p70, TGF-β1, PAI-1, M-CSF, EGF, SHP2, phospho-SHP2 (Biotechne) were all carried out as per manufacturer's instructions.
To explore this, the secretion of PAI-1 and M-CSF from MUC1-ST educated monocytes and macrophages was measured following treatments with 1 μM PD98059 or 20 μM verapamil for 20 minutes at 37° C., where indicated.

monocytes from PBMCs = assay: MUC1-ST mediated TAM formation in monocytes from PBMCs, 7 day serum-free culture; settings: PD98059 at 10 μM
Description: To further explore the role of MUC1-ST in inducing a TAM-like phenotype, monocytes from PBMCs were plated in serum-free medium, incubated with MUC1-ST or PBS, and cultured for 7 days.
Intracellular calcium flux can lead to activation of the MEK/ERK pathway (Christo et al. (2015) IMMUNOL. AND CELL BIOLOGY 93: 694-704). […] Furthermore, treatment with the MEK inhibitor PD98059 at 10 μM inhibited MUC1-ST mediated TAM formation in monocytes (FIGS. 12B, 12D-12E).

THP-1 cells = assay: PAI-1, M-CSF and kynurenine in supernatants of differentiated THP-1 cells; settings: THP-1; PD98059
Description: THP-1 cells were cultured at a concentration of 1×10^6/mL in AIM V medium. Cells were differentiated using […] phorbol 12-myristate 13-acetate (PMA) on day 0 and 100 ng/mL LPS on day 3 in the presence or absence of 100 μg/mL MUC1-ST or MUC1-T. Cell supernatants were harvested on day 5 and PAI-I concentration measured by ELISA.
Given that IDO catalyzes the rate-limiting step in the metabolism of tryptophan, the tryptophan metabolite kynurenine was detected as follows. 604, supernatant was mixed with 304, 30% trichloroacetic acid (TCA) and incubated for 30 minutes at 50° C. The supernatant was spun at 3000×g and 50 μL was harvested and mixed with 50 μL freshly prepared Ehrlich Reagent (2% p-dimethylaminobenzaldehyde in glacial acetic acid). After 10 minutes optical density (O.D.) was measured at 492 nm, and concentrations were calculated against a kynurenine standard curve. An increase in the tryptophan metabolite kynurenine was observed (FIG. 11D).
The intracellular effects of MUC1-ST binding to Siglec-9 were further explored in the monocytic cell line, THP-1. THP-1 cells were cultured for three days at a concentration of 1×10^6/mL in AIM V medium and differentiated using […] phorbol 12-myristate 13-acetate (PMA) in the presence or absence of 100 μg/mL MUC1-ST. […] THP-1 cells were further treated with DMSO or the MEK/ERK inhibitor PD98059 at 1004, and the concentration of PAI-1, M-CSF and kynurenine in cell supernatants were measured as described above. […] This increase in concentration was blocked by the MEK/ERK inhibitor PD98059 (FIG. 4I).

allogeneic CD8+ T cells = assay: Co-culture of MUC1-ST treated macrophages with allogeneic CD8+ T cells; settings: MEK signalling inhibited in the macrophages (FIG. 13K)
Description: Thereafter, the effects of MUC1-ST educated macrophages on T cell function were analyzed. Macrophages treated with MUC1-ST were co-cultured with eFluor® 670 labelled allogeneic CD8+ T cells in the presence of absence of anti-Siglec-9 antibody or isotype control. Indeed, macrophages that had been educated with MUC1-ST were decreased in their ability to stimulate the proliferation of allogeneic CD8 T cells (FIG. 11E). […] (FIG. 11F). This profile of expression and functional activity is indicative of tumor-associated macrophages (TAMs), which play a role in promoting tumor progression (Noy et al. (2014) IMMUNITY 41: 49-61; Sousa et al. (2015) BREAST CANCER RES. 17: 101; Qian et al. (2010) CELL 141: 39-45).

[2] = tested on: monocyte derived dendritic cells; assay: Differentiation of monocytes into dendritic cells; settings: 10 μg/10^6 cells anti-Siglec-9 before MUC1-ST; 10 μg/ml anti-IL-6Rα every 2 days
Description: To differentiate monocytes into macrophages, CD14+ cells were plated at a concentration of 1×10^6/mL in AIM V medium (Lonza) with either 50 ng/mL recombinant human M-CSF or 50 ng/mL recombinant human GM-CSF (Bio-Techne). The cytokines were added every 3 days. The cells were incubated at 37° C., 5% CO2 for 7 days to fully differentiate, before being characterized as macrophages via phenotypic flow cytometric analysis. To differentiate monocytes into dendritic cells (moDC), CD14+ cells were plated at a concentration of 1×10^6/mL in AIM V medium with 1500 U/mL recombinant human IL-4 (Bio-Techne) and 400 U/mL human GM-CSF (Bio-Techne) for 6 days to fully differentiate, before being characterized as immature DCs via phenotypic flow cytometric analysis (Epics XL, Beckman Coulter or FACSCalibur, BD Biosciences plus WinMDI or Cellquest software). MoDCs were matured using 1 μg/mL LPS for 24 hours.
In addition, the effects of MUC1-ST on the differentiation of monocytes into dendritic cells were assessed. Briefly, monocytes were treated with MUC1-ST on day 0 and differentiated into immature dendritic cells (DCs) using IL-4 (1500 U/mL) and GM-CSF (400 U/mL) in AIM-V media for 6 days. Immature DCs were matured using 1 μg/mL LPS for 24 hours. […]

CD8+ T cells = assay: Co-culture of MUC1-ST educated M-CSF macrophages with CD3/CD28 stimulated autologous T cells; settings: antibody present
Description: In addition, primary monocytes were induced to differentiate to macrophages in the presence of MUC1-ST and then co-cultured for 48 hours with CD3/CD28 stimulated autologous CD8+ or CD4+ T cells. T cell proliferation and CD69/CD25 cell surface expression were measured using flow cytometry.

[3] = tested on: M-CSF macrophages differentiated with LPS and IFNγ; assay: Differentiation of monocytes into M(LPS+IFNγ) macrophages: CD86 and IL-12; settings: blocking antibodies
Description: Both the cell phenotype staining and neutralization studies described in the Examples were performed using the following antibodies (all anti-human): Siglec-9 (Biotechne; 191240), Siglec-9 FITC (Biotechne; 191240), Siglec-3 (Biotechne; 6C5/2), Siglec-7 (Biotechne; AF1138), Siglec-3 FITC (BD; P67.6), Siglec-7 PE (Biolegend; 6-434), Siglec-10 PE (Biolegend; 5G6), Siglec-1 (abcam; 7D2), HLA-DR FITC (Beckman Coulter; IM0463U), CD16 FITC (Biolegend; B73.1), CD14 FITC (BD 555397), CD69 PE (Beckman Coulter; IM1943), CD25 FITC (ABX228FITC), CD86 PE (Beckman Coulter; IM2729U), CD40 FITC (BD 555588), CD83 PE (Beckman Coulter; IM2218), CD163 PE (Biolegend; GHI/61), CXCR1 FITC (BD Pharmongen; 551126), CD45 PC5 (Beckman Coulter; IM2653U), CD206 PE (ebioscience; 19.2), PD-L1 PE (Biolegend; 29E.2A3), CD36 (Santa Cruz; H-300), TGFbetaRII (Bio-Techne; AF-241), IL-6Rα (Tocilizumab; Roche. A generous gift from Dr. Valerie Corrigall). […] At least 1×10^4 events were evaluated using either Epics XL, (Beckman Coulter) or FACSCalibur (BD Biosciences) flow cytometers. […]
Given that IL-6 and NO are known differentiation modulators (Oosterhoff et al. (2012) ONCOIMMUNOLOGY 1: 649-658; Bogdan (2015) TREND IMMUNOL. 36: 161-178) the effects of MUC1-ST on the differentiation of monocytes into macrophages was assessed. […]

[4] = 20 μM verapamil, 20 minutes at 37° C.
[5] = 1 μM PD98059, 20 minutes at 37° C.

With `COc1ccc(CCN(C)CCCC(C#N)(c2ccc(OC)c(OC)c2)C(C)C)cc1OC` (stereo not shown) [verapamil] the “secretion of M-CSF” value [1, 4] was “significantly inhibited” and the “secretion of PAI-1” value [1, 4] was “significantly inhibited”.

In the case of `COc1cccc(-c2cc(=O)c3ccccc3o2)c1N` [PD98059, reference compound], the “MUC1-ST mediated TAM formation in monocytes” value (monocytes from PBMCs) was “inhibited”, the “secretion of M-CSF” value [1, 5] was “significantly inhibited” and the “secretion of PAI-1” value [1, 5] was “significantly inhibited”. For the same molecule, the “MUC1-ST induced increase in PAI-1, kynurenine and M-CSF concentration” value (THP-1 cells) was “blocked” and the “repression of T cell proliferation by MUC1-ST treated macrophages” value (allogeneic CD8+ T cells) was “could be overcome”.

For “Tocilizumab [anti-IL-6Rα, reference compound]”, the “reversal of the effect of MUC1-ST on differentiation of dendritic cells” value [2] was “significantly reverse”, the “reversal of the inhibition of CD8+ T cell activation” value (CD8+ T cells) was “could be reversed” and the “rescue of MUC1-ST induced lowering of CD86 and IL-12” value [3] was “partially rescued”.
